Test results published in patent US20090203663A1, “CHEMICAL COMPOUNDS” (AstraZeneca AB, priority 2006, published 2009).

Experiments:
[1] = target: T1, a5β1 integrin mediated adhesion of K562 cells (Homo sapiens, UniProt P05556+P08648); assay: In vitro cell adhesion assay: adhesion of K562 cells to fibronectin fragment Fn9-10 (crystal violet); type: cell-based; conditions: K562 cells on Fn9-10 coated plates, 0.2 mM MnCl, 45 minutes; IC50 data; unit inferred
T1 construct: a5β1 integrin mediated adhesion of K562 cells; host or cells: K562 human erythroleukaemia cells
Description: The assay determined the ability of compounds to inhibit the a5β1 integrin mediated adhesion of K562 cells to the ligand, a fragment of human fibronectin. The human K562 erythroleukaemia cell line (LGC Promochem, Teddington, Middlesex, UK, Catalogue No. CCL-243) was routinely maintained in RPMI 1640 medium (Sigma-Aldrich Company Ltd, Gillingham, Dorset SP8 4XT, Catalogue No. R0883) containing 10% heat-inactivated foetal calf serum (PAA lab GmbH, Pasching, Austria Catalogue No. PAA-A15-043) and 1% glutamax-1 (Invitrogen Ltd. Paisley, UK Catalogue No. 35050-038) at 37° C. with 5% CO2 at densities between 1×10^5 and 1×10^6 cells/ml.
A DNA fragment encoding the domains 9-10 (amino-acids 1325-1509) of human fibronectin (Swiss-Prot Acession No. P02751) was isolated from cDNA libraries using standard molecular biology and PCR cloning techniques. The cDNA fragment was sub-cloned into a pT7#3.3 expression vector containing a GST-epitope tag (developed at AstraZeneca; Bagnall et al., Protein Expression and Purification, 2003, 27: 1-11), and the fragment termed Fn9-10. Following expression in E. coli, the expressed protein was purified using the GST-tag using standard purification techniques.
For adhesion assay, a 96-well flat bottomed plate (Greiner Bio one ltd., Gloucester GL10 3SX Catalogue No. 655101) was coated overnight at 4° C. with 100 μl of 20 μg/ml Fn9-10 ligand in Dulbecco's PBS (Gibco#14190-94). The plate was then washed twice with 200 μl of PBS and blocked with 100 μl of 3% BSA (SigmaA7888) in PBS for 1 hour at 37° C. The plates were then washed again 3 times with 200 μl of PBS and left empty.
Test compounds were prepared as 10 mM stock solutions in DMSO (Sigma-Aldrich Company Ltd, Gillingham, Dorset SP8 4XT Catalogue No. 154938) and serially diluted with HBSS (Hanks Buffered Salt solution (Gibco Catalogue No. 14170-088)/2% DMSO to give a range of test concentrations at twice required final concentration. Aliquots (50 μl) of each compound dilution were placed into each well of the Fn9-10 coated plates. Each plate also contained control wells: maximum adhesion signal was created using wells containing 50 μl HBSS/2% DMSO, and minimum signal corresponding to no adhesion was created using wells containing 50 μl HBSS/2% DMSO/20 mM EDTA (Sigma Catalogue No. E7889).
The K562 cells were cultured to ˜1×10^6 cells/ml, and each culture suspension pooled. Cells were centrifuged at 1200 rpm for 2 mins, and the pellets washed with HBSS followed by HBSS/50 mM HEPES (Sigma Catalogue No. H0887). Cell pellets were pooled and resuspended in HBSS/0.4 mM manganese chloride/50 mM HEPES (MnCl; Sigma Catalogue No. M1787) to give a final concentration of 4×10^6 cells/ml.
The assay was initiated by the addition of 50 μl of cell suspension into each coated well (200,000 cells/well), thus resulting in final desired compound concentration and a final MnCl concentration of 0.2 mM. The plates were incubated for 45 minutes at 37° C. 5% CO2. […]
After fixation, the ethanol was flicked off to waste and 100 μl of 0.1% Crystal violet stain was added to each well, and incubated at ambient temperature for 15 minutes. […] Finally, 100 μl of deionised water was added to each well and the absorbance was determined at 590 nm on a spectrophotometer. The minimum value was subtracted from all values, and the absorbance signal was plotted against compound concentration to generate IC50 data.

human α5β1 = target: T2, human α5β1 (Homo sapiens, UniProt P05556+P08648); assay: In vitro binding assay: inhibition of α5β1 integrin binding to human fibronectin fragment Fn9-10 (Origen electrochemiluminescence); conditions: α5β1 integrin binding to biotinylated Fn9-10; IC50 data; unit inferred
T2 construct: human α5β1 purified from placenta; purchased Chemicon CC1055-K; host or cells: human placenta (tissue-purified)
Description: The assay determined the ability of compounds to inhibit binding of α5β1 integrin to a cognate ligand, a fragment of human fibronectin. The assay used Origen technology (IGEN International) to measure the compound activity. Briefly, α5β1 integrin was coated onto epoxy-paramagnetic beads (Dynal Biotech UK, Bromborough, Wirral, CH62 3QL, UK, Catalogue No 143.02) and biotinylated-fibronectin ligand was coupled to strepatividin labelled BV-Tag-NHS-Ester (BioVeris Corporation, Witney, Oxfordshire, OX28 4GE, UK, Catalogue No JSF396). The ruthenium-labelled BV-Tag emits a electrochemiluminescence signal upon stimulation which is detected by the Origen reader. Thus, interaction of integrin and ligand causes association of bead and tag, and the resulting electrochemiluminescence signal reflects the level of integrin interaction with fibronectin.
Coated beads were then washed into Assay Buffer (25 mM Hepes, 150 mM NaCl, 1 mM MgCl, 1 mM MnCl, 0.1% Tween, pH7.4) to give a final concentration of 20 µg of α5β1/ml. Immediately prior to the assay, the beads were further diluted ×40 fold in Assay Buffer to give a concentration of 0.5 μg α5β1/ml.
A DNA fragment encoding the domains 9-10 (amino-acids 1325-1509) of human fibronectin (Swiss-Prot Acession No. P02751) was isolated from cDNA libraries using standard molecular biology and PCR cloning techniques. The cDNA fragment was sub-cloned into a pT73.3 expression vector containing a GST-epitope tag (developed at AstraZeneca; Bagnall et al., Protein Expression and Purification, 2003, 27: 1-11). Following expression in E. coli, the expressed protein, termed Fn9-10, was purified using the GST-tag using standard purification techniques. The recombinant Fn9-10 was subsequently biotinylated using a EZ-link Sulfo-NHS-LC-Biotinylation kit (Perbio Science UK Ltd., Cramlington, Northumberland, NE23 1WA, UK, Catalogue No. 21335) and made to give a final concentration of approximately 1 mg/ml. BV-Tag-NHS-Ester was is labelled with streptavidin by incubation at room temperature following manufacturers instructions and buffer-exchanged into PBS to give a concentration of 0.5 mg/ml. Immediately prior to the assay, biotinylated-Fn9-10 and Streptavidin-labelled BV-Tag were diluted in Assay Buffer to give a final concentrations of 0.6 ug/ml and 1.5 ug/ml respectively. The Fn9-10 and BV-Tag solutions were then mixed together in equal volumes and incubated on ice for at least 30 minutes prior to the assay.
Test compounds were prepared as 10 mM stock solutions in DMSO (Sigma-Aldrich Company Ltd, Gillingham, Dorset SP8 4XT Catalogue No. 154938) and serially diluted with 4% DMSO to give a range of test concentrations at ×4 required final concentration. Aliquots (20 μl) of each compound dilution were placed into each well of a 384-well round bottomed polypropylene plate (Matrix Technologies, Wilmslow, Cheshire, SK9 3LP, Catalogue No. 4340 384). Each plate also contained control wells: maximum signal was created using wells containing 20 μl of 4% DMSO, and minimum signal corresponding to no binding was created using wells containing 20 μl of 80 mM EDTA (Sigma Catalogue No. E7889).
For the assay, 20 μl of a5b1-bead suspension and 40 μl of the Fn9-10/BV-Tag preincubated solution were added to each well containing 20 μl of compound or control solution. Assay plates were then incubated at room temperature for a minimum of 6 hours before being analysed on the Origen plate reader. […]

T2 sequence (P08648 42-894 limits assumed): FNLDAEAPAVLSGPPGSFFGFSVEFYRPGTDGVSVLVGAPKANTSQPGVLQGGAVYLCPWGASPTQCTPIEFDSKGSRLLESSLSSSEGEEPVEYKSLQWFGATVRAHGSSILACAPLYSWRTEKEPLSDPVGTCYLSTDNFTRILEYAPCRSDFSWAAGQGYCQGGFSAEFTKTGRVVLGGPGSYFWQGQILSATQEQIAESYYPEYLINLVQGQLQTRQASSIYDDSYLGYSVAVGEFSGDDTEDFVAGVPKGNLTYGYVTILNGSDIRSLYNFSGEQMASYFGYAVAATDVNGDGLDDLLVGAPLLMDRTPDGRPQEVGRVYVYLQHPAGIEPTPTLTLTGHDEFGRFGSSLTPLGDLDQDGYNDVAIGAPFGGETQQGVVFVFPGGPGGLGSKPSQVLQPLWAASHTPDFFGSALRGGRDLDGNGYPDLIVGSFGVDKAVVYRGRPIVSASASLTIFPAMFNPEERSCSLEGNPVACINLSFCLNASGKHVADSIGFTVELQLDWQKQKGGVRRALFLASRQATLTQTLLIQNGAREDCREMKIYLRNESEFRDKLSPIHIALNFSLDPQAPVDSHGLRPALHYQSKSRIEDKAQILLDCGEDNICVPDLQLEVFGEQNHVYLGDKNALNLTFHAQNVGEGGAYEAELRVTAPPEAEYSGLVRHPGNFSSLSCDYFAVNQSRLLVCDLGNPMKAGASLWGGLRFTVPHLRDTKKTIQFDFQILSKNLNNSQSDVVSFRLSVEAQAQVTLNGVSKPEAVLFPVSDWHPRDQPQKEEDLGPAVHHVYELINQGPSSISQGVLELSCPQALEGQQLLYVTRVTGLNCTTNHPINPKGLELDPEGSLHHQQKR
T2 sequence (P08648 895-1049 partner limits assumed): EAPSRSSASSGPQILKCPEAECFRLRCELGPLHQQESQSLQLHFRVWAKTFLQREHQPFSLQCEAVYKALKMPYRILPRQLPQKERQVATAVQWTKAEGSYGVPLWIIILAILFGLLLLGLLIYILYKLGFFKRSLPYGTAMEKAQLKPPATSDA
T2 sequence (P05556 21-798): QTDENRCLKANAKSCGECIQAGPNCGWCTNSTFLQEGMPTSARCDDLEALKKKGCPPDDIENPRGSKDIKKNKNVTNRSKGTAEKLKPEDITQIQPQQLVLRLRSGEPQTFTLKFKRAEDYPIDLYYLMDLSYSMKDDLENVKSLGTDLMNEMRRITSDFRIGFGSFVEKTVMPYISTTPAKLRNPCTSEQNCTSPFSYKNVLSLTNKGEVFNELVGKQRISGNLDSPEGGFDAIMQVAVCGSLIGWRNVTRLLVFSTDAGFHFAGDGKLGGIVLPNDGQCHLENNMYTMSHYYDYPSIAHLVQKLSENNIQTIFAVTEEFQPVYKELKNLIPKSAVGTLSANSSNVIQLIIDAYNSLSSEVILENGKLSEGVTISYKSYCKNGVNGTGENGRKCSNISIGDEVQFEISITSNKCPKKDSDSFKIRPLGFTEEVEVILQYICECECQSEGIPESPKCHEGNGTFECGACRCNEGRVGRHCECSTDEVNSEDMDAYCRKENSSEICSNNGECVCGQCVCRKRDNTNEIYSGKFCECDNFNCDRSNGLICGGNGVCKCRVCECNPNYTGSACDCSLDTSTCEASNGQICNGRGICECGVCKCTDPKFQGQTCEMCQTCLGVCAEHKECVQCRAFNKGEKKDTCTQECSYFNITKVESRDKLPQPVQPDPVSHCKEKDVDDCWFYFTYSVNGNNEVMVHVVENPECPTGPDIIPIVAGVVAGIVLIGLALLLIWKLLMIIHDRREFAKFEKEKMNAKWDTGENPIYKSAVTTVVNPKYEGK
T1 sequence (P08648 42-894 limits assumed): as the sequence (P08648 42-894 limits assumed) above
T1 sequence (P08648 895-1049 partner limits assumed): as the sequence (P08648 895-1049 partner limits assumed) above
T1 sequence (P05556 21-798): as the sequence (P05556 21-798) above

| Compound | IC50 [1] [µM] | IC50 (human α5β1) [µM] |
| --- | --- | --- |
| Cc1cc(C(=O)N2CC(Oc3ccc(C[C@H](NC(=O)c4c(Cl)cccc4Cl)C(=O)O)cc3)C2)ccc1F [Example 48, N-(2,6-dichlorobenzoyl)-O-[1-(4-fluoro-3-methylbenzoyl)azetidin-3-yl]-L-tyrosine] | 4 | 0.466 |
| O=C(N[C@@H](Cc1ccc(O[C@H]2CCCN(Cc3cc(F)ccc3F)C2)cc1)C(=O)O)c1c(Cl)cccc1Cl [Example 76, N-(2,6-dichlorobenzoyl)-O-[(3S)-1-(2,5-difluorobenzyl)piperidin-3-yl]-L-tyrosine] | 11.4 | 4.1 |
| N-(2,6-Dichlorobenzoyl)-O-[(3R)-pyrrolidin-3-yl]-L-tyrosine [Example 17] | 9.3 | 1.2 |

More lines, now with the values ahead:

| IC50 [1] [µM] | IC50 (human α5β1) [µM] | Compound |
| --- | --- | --- |
| 2.4 | 0.185 | CN1CCC(Oc2ccc(C[C@H](NC(=O)c3c(Cl)cccc3Cl)C(=O)O)cc2)CC1 [Example 20, N-(2,6-Dichlorobenzoyl)-O-(1-methylpiperidin-4-yl)-L-tyrosine] |
| 6.6 | 1.7 | N#Cc1cccc(CN2CCC(Oc3ccc(C[C@H](NC(=O)c4c(Cl)cccc4Cl)C(=O)O)cc3)CC2)c1 [Example 83, O-[1-(3-cyanobenzyl)piperidin-4-yl]-N-(2,6-dichlorobenzoyl)-L-tyrosine] |
